The target of assay [1] is T1, B1R receptor of rats (rB1R) (Rattus norvegicus, UniProt P97583).
T1 construct: host or cells: CHO K1 cells
T1 sequence (P97583 1-337): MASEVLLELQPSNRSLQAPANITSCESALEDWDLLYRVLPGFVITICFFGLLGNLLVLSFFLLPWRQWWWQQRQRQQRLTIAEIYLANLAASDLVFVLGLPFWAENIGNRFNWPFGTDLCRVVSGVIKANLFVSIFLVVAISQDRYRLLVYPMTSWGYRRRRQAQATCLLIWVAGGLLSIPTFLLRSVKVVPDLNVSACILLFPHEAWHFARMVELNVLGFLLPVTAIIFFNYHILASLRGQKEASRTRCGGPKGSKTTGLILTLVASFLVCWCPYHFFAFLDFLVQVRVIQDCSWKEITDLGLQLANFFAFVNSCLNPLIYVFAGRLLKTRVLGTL
The experiment in a line: FLIPR Ca2+ assay (Fluo-4) on CHO K1 cells stably transfected with the B1R gene of rats. Type of assay: cell-based. Particulars: CHO-K1; test substance 10 μM; agonist Des-Arg9-bradykinin 100 nM; % inhibition compared to the maximum achievable inhibition. How it is done: (§1) The agonistic or antagonistic action of compounds can be quantified on the bradykinin 1 receptor (B1R) of humans and rats with ectopically expressing cell lines (CHO K1 cells) and with the aid of a Ca^2+-sensitive dye (Fluo-4) in the fluorescent imaging plate reader (FLIPR). The figure in percent activation refers to the Ca^2+ signal after addition of Lys-Des-Arg^9-bradykinin (0.5 nM) and Des-Arg^9-bradykinin (100 nM). Antagonists result in a suppression of the Ca^2+ inflow after the addition of the agonist. Percent inhibition values are given in comparison to the maximum achievable inhibition. The compounds according to the invention act, for example, on the B1R which is implicated in various disease states. This means that the compounds of the invention are useful as pharmaceutically active substances in medicaments for the treatment and/or inhibition of such disease states.
(§2) The agonistic or antagonistic action of substances can be determined on the bradykinin 1 receptor (B1R) of humans and rats by means of the following assay. According to this assay the Ca^2+ inflow through the channel is quantified by means of a Ca^2+-sensitive dye (Fluo-4 type, Molecular Probes Europe BV, Leiden, Netherlands), in a Fluorescent Imaging Plate Reader (FLIPR, Molecular Devices, Sunnyvale, USA).
(§3) Chinese hamster ovary cells (CHO K1 cells) are used, which are stably transfected with the human B1R gene (hB1R cells, Euroscreen s.a., Gosselies, Belgium), or with the B1R gene of rats (rB1R cells, Axxam, Milan, Italy). For functional investigations these cells are plated out on black 96-well plates with a clear floor (BD Biosciences, Heidelberg, Germany) in a density of 20,000/25,000 cells/well. The cells are incubated overnight with 10 vol. % FBS (foetal bovine serum, Gibco Invitrogen GmbH, Karlsruhe, Germany) at 37° C. and 5% CO2 in a culture medium (hB1R cells: Nutrient Mixture Ham's F12, Gibco Invitrogen GmbH, Karlsruhe, Germany; rB1R cells: D-MEM/F12, Gibco Invitrogen GmbH, Karlsruhe, Germany). The following day the cells are charged for 60 minutes at 37° C. with 2.13 μM Fluo-4 (Molecular Probes Europe BV, Leiden, Netherlands) in HBSS buffer (Hank's buffered saline solution, Gibco Invitrogen GmbH, Karlsruhe, Germany) together with […] (Sigma-Aldrich, Taufkirchen, Germany) and 10 mM HEPES (Sigma-Aldrich, Taufkirchen, Germany).
(§4) The plates are then washed twice with HBSS buffer and HBSS buffer is added which additionally contains 0.1% BSA (bovine serum albumin; Sigma-Aldrich, Taufkirchen, Germany), 5.6 mM glucose and 0.05% gelatin (Merck KGaA, Darmstadt, Germany). After further incubation for 20 minutes at room temperature the plates are used for the Ca^2+ measurement in the FLIPR. The Ca^2+-dependent fluorescence is measured both before and after the addition of substances (λex=488 nm, λem=540 nm). The quantification is carried out by measuring the highest fluorescence intensity (FC, fluorescence counts) over time.
(§5) The FLIPR protocol consists of two substance additions. First, test substances (10 μM) are pipetted onto the cells and the Ca^2+ inflow is compared with the control (hB1R: Lys-Des-Arg9-bradykinin 0.5 nM; rB1R: Des-Arg9-bradykinin 100 nM). This gives the result in percent activation referred to the Ca^2+ signal after addition of Lys-Des-Arg9-bradykinin (0.5 nM), bzw. Des-Arg9-bradykinin (100 nM). After 10 minutes' incubation 0.5 nM Lys-Des-Arg9-bradykinin (hB1R) and 100 nM Des-Arg^9-bradykinin (rB1R) are applied and the inflow of Ca^2+ is likewise determined. Antagonists lead to a suppression of the Ca^2+ inflow. The percent inhibition compared to the maximum achievable inhibition is calculated. The compounds show a good activity on both human and rat receptors.
(§6) The agonistic and antagonistic action of the compounds according to the invention on the bradykinin 1 receptor (B1R) of humans and rats were determined as described above. Antagonists lead to a suppression of the Ca^2+ inflow. […]

Assay [2] has as its target T2, human B1R receptor (hB1R) (Homo sapiens, UniProt P46663).
T2 construct: host or cells: CHO K1 cells
T2 sequence (P46663 1-353): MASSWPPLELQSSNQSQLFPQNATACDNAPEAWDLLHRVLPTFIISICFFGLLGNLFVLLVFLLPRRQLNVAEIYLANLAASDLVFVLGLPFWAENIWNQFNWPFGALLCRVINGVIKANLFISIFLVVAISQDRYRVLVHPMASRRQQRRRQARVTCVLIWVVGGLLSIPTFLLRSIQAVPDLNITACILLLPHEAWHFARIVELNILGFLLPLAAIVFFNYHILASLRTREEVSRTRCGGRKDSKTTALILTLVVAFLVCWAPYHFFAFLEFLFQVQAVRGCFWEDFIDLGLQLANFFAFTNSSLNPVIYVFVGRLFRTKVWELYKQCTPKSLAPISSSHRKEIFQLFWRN
The assay can be described thus: FLIPR Ca2+ assay (Fluo-4) on CHO K1 cells stably transfected with the human B1R gene. Type of assay: cell-based. As to conditions: CHO-K1; test substance 10 μM; agonist Lys-Des-Arg9-bradykinin 0.5 nM; % inhibition compared to the maximum achievable inhibition. How it is done:
as §1, §2, §3, §4, §5, §6

The inhibition is the change of the read-out against control, counted positive when it falls. Consider `COc1cc(C)c(S(=O)(=O)N2CCCCC2COCC(=O)N2CCn3cnnc3C2)c(C)c1` (stereo not drawn) [(1), 1-(5,6-dihydro-[1,2,4]triazolo[4,3-a]pyrazin-7(8H)-yl)-2-((1-(4-methoxy-2,6-dimethylphenylsulfonyl)piperidin-2-yl)methoxy)ethanone], for which the inhibition at 10 µM came to 100% in assay [1] and 56% in assay [2].

Regarding `COc1cc(C)c(S(=O)(=O)N2CCCCC2COCC(=O)N2CCn3cc(CN4CCCCC4)nc3C2)c(C)c1` (stereo not drawn) [(2), 2-((1-(4-methoxy-2,6-dimethylphenylsulfonyl)piperidin-2-yl)methoxy)-1-(2-(piperidin-1-ylmethyl)-5,6-dihydroimidazo[1,2-a]pyrazin-7(8H)-yl)ethanone], the inhibition at 10 µM came out at 106% in assay [1] and 105% in assay [2].

Regarding `COc1cc(C)c(S(=O)(=O)N2CCCCC2COCC(=O)N2CCn3c(CN4CCN(C)CC4)ccc3C2)c(C)c1` (stereo not drawn) [(4), 2-((1-(4-methoxy-2,6-dimethylphenylsulfonyl)piperidin-2-yl)methoxy)-1-(6-((4-methylpiperazin-1-yl)methyl)-3,4-dihydropyrrolo[1,2-a]pyrazin-2(1H)-yl)ethanone], the inhibition at 10 µM in assay [1] came out at 101%; in assay [2], 105%.

For the molecule `Cc1cc(S(=O)(=O)N2CCCCC2CCC(=O)N2CCn3c(CN4CCN(C)CC4)ccc3C2)c(C)cc1Cl` (stereo not drawn) [(5), 3-(1-(4-chloro-2,5-dimethylphenylsulfonyl)piperidin-2-yl)-1-(6-((4-methyl-piperazin-1-yl)methyl)-3,4-dihydropyrrolo[1,2-a]pyrazin-2(1H)-yl)propan-1-one], the inhibition at 10 µM in assay [1] came to 51%; in assay [2], 100%.

In the case of `COc1cc(C)c(S(=O)(=O)N2CCCCC2COCC(=O)N2CCn3c(CN4CCOCC4)ccc3C2)c(C)c1` (stereo not drawn) [(6), 2-((1-(4-methoxy-2,6-dimethylphenylsulfonyl)piperidin-2-yl)methoxy)-1-(6-(morpholinomethyl)-3,4-dihydropyrrolo[1,2-a]pyrazin-2(1H)-yl)ethanone], the inhibition at 10 µM is 101% in assay [1] and 100% in assay [2].

Regarding `CN1CCN(Cc2ccc3n2CCN(C(=O)CC2CCCCN2S(=O)(=O)c2cccc(C(F)(F)F)c2)C3)CC1` (stereo not drawn) [(7), 1-(6-((4-methylpiperazin-1-yl)methyl)-3,4-dihydropyrrolo[1,2-a]pyrazin-2(1H)-yl)-2-(1-(3-(trifluoromethyl)phenylsulfonyl)piperidin-2-yl)ethanone], the inhibition at 10 µM in assay [1] was determined as 52%; in assay [2] it was 87%.

In the case of `O=C(CC1CCCCN1S(=O)(=O)c1cccc(C(F)(F)F)c1)N1CCn2c(CN3CCCC3)ccc2C1` (stereo not drawn) [(8), 1-(6-(pyrrolidin-1-ylmethyl)-3,4-dihydropyrrolo[1,2-a]pyrazin-2(1H)-yl)-2-(1-(3-(trifluoromethyl)phenylsulfonyl)piperidin-2-yl)ethanone], the inhibition at 10 µM in assay [1] is 96%; in assay [2], 99%.

In the case of `Cc1cc(S(=O)(=O)N2CCCCC2CCC(=O)N2CCn3c(CN4CCCC4)ccc3C2)c(C)cc1Cl` (stereo not drawn) [(9), 3-(1-(4-chloro-2,5-dimethylphenylsulfonyl)piperidin-2-yl)-1-(6-(pyrrolidin-1-ylmethyl)-3,4-dihydropyrrolo[1,2-a]pyrazin-2(1H)-yl)propan-1-one], the values for the inhibition at 10 µM in assay [1] and in assay [2] were 48% and 104%, respectively.

In the case of `O=C(COCC1CCc2ccccc2N1S(=O)(=O)c1ccc(Cl)c(Cl)c1)N1CCn2c(CN3CCCC3)ccc2C1` (stereo not drawn) [(10), 2-((1-(3,4-dichlorophenylsulfonyl)-1,2,3,4-tetrahydroquinolin-2-yl)methoxy)-1-(6-(pyrrolidin-1-ylmethyl)-3,4-dihydropyrrolo[1,2-a]pyrazin-2(1H)-yl)ethanone], the inhibition at 10 µM was determined as 91% in assay [1] and 101% in assay [2].

`CN1CCN(Cc2ccc3n2CCN(C(=O)COCC2CCc4ccccc4N2S(=O)(=O)c2ccc(Cl)c(Cl)c2)C3)CC1` (stereo not drawn) [(11), 2-((1-(3,4-dichlorophenylsulfonyl)-1,2,3,4-tetrahydroquinolin-2-yl)methoxy)-1-(6-((4-methylpiperazin-1-yl)methyl)-3,4-dihydropyrrolo[1,2-a]pyrazin-2(1H)-yl)ethanone]: the inhibition at 10 µM in assay [1] amounted to 56%; in assay [2], 100%.

Take `Cc1cc(S(=O)(=O)N2CCCCC2CCC(=O)N2CCn3c(CN4CCOCC4)ccc3C2)c(C)cc1Cl` (stereo not drawn) [(12), 3-(1-(4-chloro-2,5-dimethylphenylsulfonyl)piperidin-2-yl)-1-(6-(morpholino-methyl)-3,4-dihydropyrrolo[1,2-a]pyrazin-2(1H)-yl)propan-1-one]: the inhibition at 10 µM was 57% in assay [1] and 103% in assay [2].

On to `COc1cc(C)c(S(=O)(=O)N2CCCCC2COCC(=O)N2CCn3c(CN4CCCC4)ccc3C2)c(C)c1` (stereo not drawn) [(13), 2-((1-(4-methoxy-2,6-dimethylphenylsulfonyl)piperidin-2-yl)methoxy)-1-(6-(pyrrolidin-1-ylmethyl)-3,4-dihydropyrrolo[1,2-a]pyrazin-2(1H)-yl)ethanone], for which the inhibition at 10 µM in assay [1] and in assay [2] was 102% each time.

On to `COc1cc(C)c(S(=O)(=O)N2CCCCC2COCC(=O)N2CCn3c(CCCN4CCN(C)CC4)ccc3C2)c(C)c1` (stereo not drawn) [(14), 2-((1-(4-methoxy-2,6-dimethylphenylsulfonyl)piperidin-2-yl)methoxy)-1-(6-(3-(4-methylpiperazin-1-yl)propyl)-3,4-dihydropyrrolo[1,2-a]pyrazin-2(1H)-yl)ethanone], for which the inhibition at 10 µM in assay [1] was found to be 99%; in assay [2] it was 97%.

`COc1cc(C)c(S(=O)(=O)N2CCCCC2COCC(=O)N2CCn3c(CN4CCCCC4)nnc3C2)c(C)c1` (stereo not drawn) [(87), 2-((1-(4-Methoxy-2,6-dimethylphenylsulfonyl)piperidin-2-yl)methoxy)-1-(3-(piperidin-1-ylmethyl)-5,6-dihydro-[1,2,4]triazolo[4,3-a]pyrazin-7(8H)-yl)ethanone]: the inhibition at 10 µM in assay [1] was 103%.

The record behind these values is US8178535B2, “Substituted sulfonamide compounds having bradykinin 1 receptor activity and use thereof as medicaments” (Gruenenthal GmbH, priority 2008, dated 2012).
